# Literature values, collected in PMC7536072, “Molecular and functional characterization of somatostatin-type signalling in a deuterostome invertebrate” (Open Biology, 2020).
# Bridges are numbered along the chain shown (N, C = ends). Where no end group is shown, it is not given here.
# Legend:
# [1] = test system: growth hormone release; details: ref [1]; cited from earlier work
# Description: (§1) Subsequently, an N-terminally extended isoform (SS28) was identified, with both SS14 and SS28 being derived from the same precursor protein [5]. Five G-protein-coupled receptors, SSTR1, SSTR2, SSTR3, SSTR4 and SSTR5, mediate effect ...
# [2] = test system: insulin release; details: ref [2]; cited from earlier work
# Description: as §1
# [3] = test system: mammals; details: intracerebroventricular, cited from earlier work
# Description: as §1
substance,measurement,setting,value
"SS: tetradecapeptide with a disulfide bridge linking cysteine residues at positions 3 and 14 (SS14) (AGCKNFFWKTFTSC; disulfide 3-14; UniProt P61278 103-116, looked up)",effect on growth hormone release,[1],inhibits growth hormone release
same,effect on insulin release,[2],inhibits insulin release
same,effect on food intake and drinking,"[3]; ref [12],[13]",stimulation of food intake and drinking
same,anxiolytic effect,[3]; ref [14],anxiolysis
